According to US20230085307A1, “PYRIDAZINONE COMPOUND AND HERBICIDE” (NISSAN CHEMICAL CORPORATION, priority 2019, published 2023):

Legend:
[1] = tested on: persian speedwell; test: Test Example 5: herbicidal effect by foliage application, plastic box (Table 20, symbol R); format: in vivo, Persian speedwell (Veronica persica); conditions: amount of applied herbicide 320 g/ha; foliage application after 14-day growth; evaluated three weeks after application
How it was run: (§1)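 Sow seeds spot-wise in sterilized diluvial soil; cover with ~1.5 cm soil. Grow 14 days in greenhouse, 25° C. to 30° C. Spray foliage with emulsion diluted to predetermined amount. Rate effect after 3 weeks.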

[2] = tested on: southern crabgrass; test: Test Example 4: herbicidal effect by soil treatment (Table 19, symbol F); format: in vivo, southern crabgrass (Digitaria ciliaris); conditions: amount of applied herbicide 320 g/ha
How it was run: (§2)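 Soil-surface application: an emulsion agent diluted with water to the predetermined dose is sprayed uniformly over seeds lying under roughly 1.5 cm of sterilized diluvial soil. Boxes stay in a greenhouse at 25° C. to 30° C. Three weeks later, each species is graded on previously defined criteria.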

[3] = tested on: wild oat; test: Test Example 4: herbicidal effect by soil treatment (Table 19, symbol I); format: in vivo, wild oat (Avena fatua); conditions: amount of applied herbicide 320 g/ha
How it was run: as §2

[4] = tested on: rice flat sedge; test: Test Example 3: herbicidal effect by foliage application, Wagner pot (Table 18, symbol E); format: in vivo, rice flat sedge (Cyperus iria); conditions: 320 g/ha
How it was run: (§3)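 Plants were sown in alluvial soil held under 0.1–0.5 cm standing water and grown 14 days in a greenhouse at 25–30 °C. An emulsifiable formulation, water-diluted to the set dose, was then sprayed onto the foliage, and effects were scored three weeks later using previously defined criteria.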

[5] = tested on: Italian ryegrass; test: Test Example 5: herbicidal effect by foliage application, plastic box (Table 20, symbol K); format: in vivo, Italian ryegrass (Lolium multiflorum); conditions: amount of applied herbicide 320 g/ha; foliage application after 14-day growth; evaluated three weeks after application
How it was run: as §1

[6] = tested on: Chinese sprangletop; test: Test Example 3: herbicidal effect by foliage application, Wagner pot (Table 18, symbol D); format: in vivo, chinese sprangletop (Leptochloa chinensis); conditions: 320 g/ha
How it was run: as §3

[7] = tested on: blackgrass; test: Test Example 4: herbicidal effect by soil treatment (Table 19, symbol J); format: in vivo, blackgrass (Alopecurus myosuroides); conditions: amount of applied herbicide 320 g/ha
How it was run: as §2

[8] = tested on: persian speedwell; test: Test Example 4: herbicidal effect by soil treatment (Table 19, symbol R); format: in vivo, Persian speedwell (Veronica persica); conditions: amount of applied herbicide 320 g/ha
How it was run: as §2

[9] = tested on: redroot pigweed; test: Test Example 4: herbicidal effect by soil treatment (Table 19, symbol N); format: in vivo, redroot pigweed (Amaranthus retroflexus); conditions: amount of applied herbicide 320 g/ha
How it was run: as §2

[10] = tested on: lambsquarters; test: Test Example 5: herbicidal effect by foliage application, plastic box (Table 20, symbol O); format: in vivo, lambsquarters (Chenopodium album); conditions: amount of applied herbicide 320 g/ha; foliage application after 14-day growth; evaluated three weeks after application
How it was run: as §1

[11] = tested on: chickweed; test: Test Example 5: herbicidal effect by foliage application, plastic box (Table 20, symbol P); format: in vivo, common chickweed (Stellaria media); conditions: amount of applied herbicide 320 g/ha; foliage application after 14-day growth; evaluated three weeks after application
How it was run: as §1

[12] = tested on: barnyard grass; test: Test Example 3: herbicidal effect by foliage application, Wagner pot (Table 18, symbol H); format: in vivo, barnyard grass (Echinochloa crus-galli); conditions: 320 g/ha
How it was run: as §3

[13] = tested on: Italian ryegrass; test: Test Example 4: herbicidal effect by soil treatment (Table 19, symbol K); format: in vivo, Italian ryegrass (Lolium multiflorum); conditions: amount of applied herbicide 320 g/ha
How it was run: as §2

[14] = tested on: windgrass; test: Test Example 4: herbicidal effect by soil treatment (Table 19, symbol L); format: in vivo, windgrass (Apera spica-venti); conditions: amount of applied herbicide 320 g/ha
How it was run: as §2

[15] = tested on: wild oat; test: Test Example 5: herbicidal effect by foliage application, plastic box (Table 20, symbol I); format: in vivo, wild oat (Avena fatua); conditions: amount of applied herbicide 320 g/ha; foliage application after 14-day growth; evaluated three weeks after application
How it was run: as §1

[16] = tested on: velvetleaf; test: Test Example 5: herbicidal effect by foliage application, plastic box (Table 20, symbol M); format: in vivo, velvetleaf (Abutilon theophrasti); conditions: amount of applied herbicide 320 g/ha; foliage application after 14-day growth; evaluated three weeks after application
How it was run: as §1

[17] = tested on: redroot pigweed; test: Test Example 5: herbicidal effect by foliage application, plastic box (Table 20, symbol N); format: in vivo, redroot pigweed (Amaranthus retroflexus); conditions: amount of applied herbicide 320 g/ha; foliage application after 14-day growth; evaluated three weeks after application
How it was run: as §1

[18] = tested on: green foxtail; test: Test Example 4: herbicidal effect by soil treatment (Table 19, symbol G); format: in vivo, green foxtail (Setaria viridis); conditions: amount of applied herbicide 320 g/ha
How it was run: as §2

[19] = tested on: barnyard grass; test: Test Example 5: herbicidal effect by foliage application, plastic box (Table 20, symbol H); format: in vivo, barnyard grass (Echinochloa crus-galli); conditions: amount of applied herbicide 320 g/ha; foliage application after 14-day growth; evaluated three weeks after application
How it was run: as §1

[20] = tested on: southern crabgrass; test: Test Example 5: herbicidal effect by foliage application, plastic box (Table 20, symbol F); format: in vivo, southern crabgrass (Digitaria ciliaris); conditions: amount of applied herbicide 320 g/ha; foliage application after 14-day growth; evaluated three weeks after application
How it was run: as §1

[21] = tested on: blackgrass; test: Test Example 5: herbicidal effect by foliage application, plastic box (Table 20, symbol J); format: in vivo, blackgrass (Alopecurus myosuroides); conditions: amount of applied herbicide 320 g/ha; foliage application after 14-day growth; evaluated three weeks after application
How it was run: as §1

[22] = tested on: barnyard grass; test: Test Example 4: herbicidal effect by soil treatment (Table 19, symbol H); format: in vivo, barnyard grass (Echinochloa crus-galli); conditions: amount of applied herbicide 320 g/ha
How it was run: as §2

[23] = tested on: velvetleaf; test: Test Example 4: herbicidal effect by soil treatment (Table 19, symbol M); format: in vivo, velvetleaf (Abutilon theophrasti); conditions: amount of applied herbicide 320 g/ha
How it was run: as §2

[24] = tested on: green foxtail; test: Test Example 5: herbicidal effect by foliage application, plastic box (Table 20, symbol G); format: in vivo, green foxtail (Setaria viridis); conditions: amount of applied herbicide 320 g/ha; foliage application after 14-day growth; evaluated three weeks after application
How it was run: as §1

[25] = tested on: chickweed; test: Test Example 4: herbicidal effect by soil treatment (Table 19, symbol P); format: in vivo, common chickweed (Stellaria media); conditions: amount of applied herbicide 320 g/ha
How it was run: as §2

[26] = tested on: windgrass; test: Test Example 5: herbicidal effect by foliage application, plastic box (Table 20, symbol L); format: in vivo, windgrass (Apera spica-venti); conditions: amount of applied herbicide 320 g/ha; foliage application after 14-day growth; evaluated three weeks after application
How it was run: as §1

[27] = tested on: lambsquarters; test: Test Example 4: herbicidal effect by soil treatment (Table 19, symbol O); format: in vivo, lambsquarters (Chenopodium album); conditions: amount of applied herbicide 320 g/ha
How it was run: as §2

SMILES: Cc1nn(C)c(=O)c(-c2c(-c3ccc(Br)cc3)sc3c(C)cccc23)c1O [4-104]
- Herbicidal effect by foliage application, R: persian speedwell [1]: 5 (Herbicidal rate of 90% or more (almost completely withered))
- Herbicidal effect by soil treatment, F: southern crabgrass [2]: 0 (Herbicidal rate of 5% or less (almost no effect))
- Herbicidal effect by soil treatment, I: wild oat [3]: 0 (Herbicidal rate of 5% or less (almost no effect))
- herbicidal effect on rice flat sedge (E) [4]: 0 (Herbicidal rate of 5% or less (almost no effect))
- Herbicidal effect by foliage application, K: Italian ryegrass [5]: 4 (Herbicidal rate of 70% or more and less than 90%)
- herbicidal effect on Chinese sprangletop (D) [6]: 0 (Herbicidal rate of 5% or less (almost no effect))
- Herbicidal effect by soil treatment, J: blackgrass [7]: 0 (Herbicidal rate of 5% or less (almost no effect))
- Herbicidal effect by soil treatment, R: persian speedwell [8]: 3 (Herbicidal rate of 40% or more and less than 70%)
- Herbicidal effect by soil treatment, N: redroot pigweed [9]: 4 (Herbicidal rate of 70% or more and less than 90%)
- Herbicidal effect by foliage application, O: lambsquarters [10]: 4 (Herbicidal rate of 70% or more and less than 90%)
- Herbicidal effect by foliage application, P: chickweed [11]: 5 (Herbicidal rate of 90% or more (almost completely withered))
- herbicidal effect on barnyard grass (H) [12]: 2 (Herbicidal rate of 20% or more and less than 40%)
- Herbicidal effect by soil treatment, K: Italian ryegrass [13]: 0 (Herbicidal rate of 5% or less (almost no effect))
- Herbicidal effect by soil treatment, L: windgrass [14]: 0 (Herbicidal rate of 5% or less (almost no effect))
- Herbicidal effect by foliage application, I: wild oat [15]: 0 (Herbicidal rate of 5% or less (almost no effect))
- Herbicidal effect by foliage application, M: velvetleaf [16]: 5 (Herbicidal rate of 90% or more (almost completely withered))
- Herbicidal effect by foliage application, N: redroot pigweed [17]: 5 (Herbicidal rate of 90% or more (almost completely withered))
- Herbicidal effect by soil treatment, G: green foxtail [18]: 0 (Herbicidal rate of 5% or less (almost no effect))
- Herbicidal effect by foliage application, H: barnyard grass [19]: 0 (Herbicidal rate of 5% or less (almost no effect))
- Herbicidal effect by foliage application, F: southern crabgrass [20]: 0 (Herbicidal rate of 5% or less (almost no effect))
- Herbicidal effect by foliage application, J: blackgrass [21]: 0 (Herbicidal rate of 5% or less (almost no effect))
- Herbicidal effect by soil treatment, H: barnyard grass [22]: 0 (Herbicidal rate of 5% or less (almost no effect))
- Herbicidal effect by soil treatment, M: velvetleaf [23]: 2 (Herbicidal rate of 20% or more and less than 40%)
- Herbicidal effect by foliage application, G: green foxtail [24]: 0 (Herbicidal rate of 5% or less (almost no effect))
- Herbicidal effect by soil treatment, P: chickweed [25]: 3 (Herbicidal rate of 40% or more and less than 70%)
- Herbicidal effect by foliage application, L: windgrass [26]: 3 (Herbicidal rate of 40% or more and less than 70%)
- Herbicidal effect by soil treatment, O: lambsquarters [27]: 1 (Herbicidal rate of 5% or more and less than 20%)

SMILES: Cc1nn(C)c(=O)c(-c2c(-c3ccc(OC(F)(F)F)cc3)sc3c(C)cccc23)c1O [4-130]
- Herbicidal effect by foliage application, R: persian speedwell [1]: 5 (Herbicidal rate of 90% or more (almost completely withered))
- F: southern crabgrass, herbicidal effect grade [2]: 0 (Herbicidal rate of 5% or less (almost no effect))
- I: wild oat, herbicidal effect grade [3]: 0 (Herbicidal rate of 5% or less (almost no effect))
- herbicidal effect on rice flat sedge (E) [4]: 4 (Herbicidal rate of 70% or more and less than 90%)
- Herbicidal effect by foliage application, K: Italian ryegrass [5]: 3 (Herbicidal rate of 40% or more and less than 70%)
- herbicidal effect on Chinese sprangletop (D) [6]: 0 (Herbicidal rate of 5% or less (almost no effect))
- J: blackgrass, herbicidal effect grade [7]: 0 (Herbicidal rate of 5% or less (almost no effect))
- R: persian speedwell, herbicidal effect grade [8]: 4 (Herbicidal rate of 70% or more and less than 90%)
- N: redroot pigweed, herbicidal effect grade [9]: 5 (Herbicidal rate of 90% or more (almost completely withered))
- Herbicidal effect by foliage application, O: lambsquarters [10]: 5 (Herbicidal rate of 90% or more (almost completely withered))
- Herbicidal effect by foliage application, P: chickweed [11]: 5 (Herbicidal rate of 90% or more (almost completely withered))
- herbicidal effect on barnyard grass (H) [12]: 3 (Herbicidal rate of 40% or more and less than 70%)
- K: Italian ryegrass, herbicidal effect grade [13]: 0 (Herbicidal rate of 5% or less (almost no effect))
- L: windgrass, herbicidal effect grade [14]: 0 (Herbicidal rate of 5% or less (almost no effect))
- Herbicidal effect by foliage application, I: wild oat [15]: 0 (Herbicidal rate of 5% or less (almost no effect))
- Herbicidal effect by foliage application, M: velvetleaf [16]: 4 (Herbicidal rate of 70% or more and less than 90%)
- Herbicidal effect by foliage application, N: redroot pigweed [17]: 5 (Herbicidal rate of 90% or more (almost completely withered))
- G: green foxtail, herbicidal effect grade [18]: 0 (Herbicidal rate of 5% or less (almost no effect))
- Herbicidal effect by foliage application, H: barnyard grass [19]: 0 (Herbicidal rate of 5% or less (almost no effect))
- Herbicidal effect by foliage application, F: southern crabgrass [20]: 0 (Herbicidal rate of 5% or less (almost no effect))
- Herbicidal effect by foliage application, J: blackgrass [21]: 3 (Herbicidal rate of 40% or more and less than 70%)
- H: barnyard grass, herbicidal effect grade [22]: 0 (Herbicidal rate of 5% or less (almost no effect))
- M: velvetleaf, herbicidal effect grade [23]: 2 (Herbicidal rate of 20% or more and less than 40%)
- Herbicidal effect by foliage application, G: green foxtail [24]: 0 (Herbicidal rate of 5% or less (almost no effect))
- P: chickweed, herbicidal effect grade [25]: 1 (Herbicidal rate of 5% or more and less than 20%)
- Herbicidal effect by foliage application, L: windgrass [26]: 3 (Herbicidal rate of 40% or more and less than 70%)
- O: lambsquarters, herbicidal effect grade [27]: 1 (Herbicidal rate of 5% or more and less than 20%)
